Data: patent publication US12012413B2, “Methods of treating painful diabetic peripheral neuropathy” (Tenacia Biotechnology (Hong Kong) Co., Limited, priority 2019, dated 2024)
≈ marks a conversion by molar mass, not a printed value. Like-named read-outs stand apart in the source and are kept apart here.

Key:
Format in all cases: physicochemical
[1] = Solubility and stability of saturated solutions in pH 2-8 buffers at 25° C. (HPLC); conditions: for solubility at 1 day / solubility at 4 days / solubility at 7 days: ca. 25° C., read-out: solubility in an aqueous solvent; for solubility at 1 day: after about 1 day; for solubility at 4 days: after about 4 days; for solubility at 7 days: after about 7 days
Method: Crystalline, monohydrate Form MH of (2S,3R)-3-hydroxy-2-((R)-5-isobutyryl-1-oxo-2,5-diazaspiro[3.4]octan-2-yl)butanamide was prepared as follows. Saturated solutions of 3-hydroxy-2-(5-isobutyryl-1-oxo-2,5-diazaspiro[3.4]octan-2-yl)butanamide were prepared in pH 2, pH 3, pH 5, pH 7, and pH 8 buffers and were stirred at 25° C. Aliquots were taken after 1 day, 4 days, and 7 days and centrifuged at 12,500 rpm for 15 minutes. The supernatant was analyzed for sample concentration by HPLC, and the residual solids were analyzed by XRPD after 1 day, 4 days, and 7 days.

[2] = Solid form conversion / physical stability (XRPD); conditions: ambient conditions of temperature and humidity; versus anhydrous Forms A, B, and C
Method: X-ray powder diffraction (XRPD) analysis was carried out on a Stoe Stadi P with Mythen1K detector; Cu-Kα1 radiation; 40 kV and 40 mA tube power; curved Ge monochromator; 0.02° 2θ step size, 12 s step time, 1.5-50.5° 2θ scanning range; detector mode: step scan; 1° 2θ detector step. The sample (about 20 mg) was placed between two acetate foils and clamped in a Stoe transmission sample holder. The sample holder was rotated during the measurement.
X-ray powder diffraction (XRPD) analysis was also carried out on a on a Bruker D8 Advance; Cu-Kα radiation; standard measurement conditions: Bragg-Brentano reflection geometry; 40 kV and 40 mA tube power; LynxEye detector; 0.02° 2θ step size, 37 s step time, 2.5-50.5° 2θ scanning range (about 10 min measurement time. The sample was spread on a silicon single crystal substrate without cavity and flattened to fit to the 0.1 mm depth of the sample holder.
Crystalline, anhydrous Form C material of 3-hydroxy-2-(5-isobutyryl-1-oxo-2,5-diazaspiro[3.4]octan-2-yl)butanamide is not stable in comparison to anhydrous Form A or anhydrous Form B under ambient conditions of temperature and humidity. […] In turn, anhydrous Form A and anhydrous Form B each convert to monohydrate Form MH under the conditions described above.

[3] = Dynamic vapor sorption (DVS) profile
From the text: FIG. 4 depicts the dynamic sorption vapor (DVS) profile of crystalline, monohydrate Form MH of NYX-2925. […] This is a fully reversible process and the sample loses this water when decreasing the relative humidity with a negligible hysteresis. At low relative humidity there is the release and uptake of about 5.5 wt. % in the range of about 0% to about 15% relative humidity with about 10% relative humidity hysteresis. The monohydrate Form MH of NYX-2925 retains about 5.7 weight % water content, corresponding to the stoichiometric water content of the, monohydrate, over the range of about 10% to about 80% relative humidity with less than 0.5 wt. % change. There is minimal water uptake above 80% relative humidity and about 1 weight % gain in the 90% to 95% relative humidity range.

[4] = Approximate solubility by stepwise dilution in solvents and solvent mixtures; conditions: 22 °C, about 22° C., read-out: Solubility S
Method: Approximate solubilities were determined by a stepwise dilution of a suspension of about 10 mg of substance in 0.05 mL of solvent. If the substance was not dissolved by addition of a total of at least 10 ml solvent, the solubility was indicated as <1 mg/mL. For all experiments, analytical grade solvents were used.
The approximate solubility of crystalline, monohydrate Form MH of NYX-2925 across a range of solvents and solvent mixtures (expressed in volume ratios measured at about 22° C.) is provided in Table 8, below.

[5] = Stability of monohydrate drug substance and oral capsules on storage
From the text: NYX-2925 monohydrate drug product was formulated with the pharmaceutically acceptable excipients: microcrystalline cellulose, starch, and magnesium stearate.

[6] = aqueous buffer, pH 2, aqueous buffer, thermodynamic from solid, pH of about 2
[7] = aqueous buffer, pH 3, aqueous buffer, thermodynamic from solid, pH of about 3
[8] = aqueous buffer, pH 5, aqueous buffer, thermodynamic from solid, pH of about 5
[9] = aqueous buffer, pH 7, aqueous buffer, thermodynamic from solid, pH of about 7
[10] = aqueous buffer, pH 8, aqueous buffer, thermodynamic from solid, pH of about 8

CC(C)C(=O)N1CCC[C@]12CN([C@H](C(N)=O)[C@@H](C)O)C2=O [Form MH, (2S,3R)-3-hydroxy-2-((R)-5-isobutyryl-1-oxo-2,5-diazaspiro[3.4]octan-2-yl)butanamide]
solubility at 1 day [1, 6]: ~54.1 mg/mL (≈ 182 mM)
solubility at 4 days [1, 6]: ~53.5 mg/mL (≈ 180 mM)
solubility at 7 days [1, 6]: ~53.5 mg/mL (≈ 180 mM)
solubility at 1 day [1, 7]: ~54.2 mg/mL (≈ 182 mM)
solubility at 4 days [1, 7]: ~53.2 mg/mL (≈ 179 mM)
solubility at 7 days [1, 7]: ~52.4 mg/mL (≈ 176 mM)
solubility at 1 day [1, 8]: ~52.5 mg/mL (≈ 177 mM)
solubility at 4 days [1, 8]: ~53.2 mg/mL (≈ 179 mM)
solubility at 7 days [1, 8]: ~52.4 mg/mL (≈ 176 mM)
solubility at 1 day [1, 9]: ~52.6 mg/mL (≈ 177 mM)
solubility at 4 days [1, 9]: ~53 mg/mL (≈ 178 mM)
solubility at 7 days [1, 9]: ~52.3 mg/mL (≈ 176 mM)
solubility at 1 day [1, 10]: ~52.7 mg/mL (≈ 177 mM)
solubility at 4 days [1, 10]: ~51.6 mg/mL (≈ 174 mM)
solubility at 7 days [1, 10]: ~52.6 mg/mL (≈ 177 mM)
solubility thermodynamic at 7 days ([1]; pH 2, pH 3, pH 5, pH 7 and pH 8 buffers, aqueous buffer, thermodynamic from solid, pH ranges of 2-8, 25° C., after 7 days, read-out: saturated concentration in buffers): ~50 mg/mL (≈ 168 mM)
stability in saturated buffer solutions (HPLC analysis) ([1]; pH ranges of 2-8, 25° C., after 7 days): stable
relative stability of crystalline forms [2]: more stable
DVS weight gain ([3]; 90% to 95% relative humidity range): about 1 weight %
DVS release and uptake of water (reversible weight loss) ([3]; about 0% to about 15% relative humidity, about 10% RH hysteresis): about 5.5 wt. %
DVS water content retained ([3]; about 10% to about 80% relative humidity): about 5.7 weight %
DVS continuous reversible uptake of water ([3]; from about 50% to about 95% relative humidity, mainly above 90%): about 1.5 wt. %
DVS change in water content ([3]; over about 10% to about 80% relative humidity): less than 0.5 wt. %
solubility ([4]; 1,4-dioxane, organic solvent or mixture, thermodynamic from solid, 1,4-dioxane): 28 to 31 mg/mL (≈ 94.2 to 104 mM)
solubility ([4]; 1/1 dichloromethane/methanol (v/v), organic solvent or mixture, thermodynamic from solid, 1/1 dichloromethane/methanol (volume ratio)): > 200 mg/mL
solubility ([4]; 1/1 ethanol/water (v/v), aqueous with cosolvent or surfactant or cyclodextrin, thermodynamic from solid, 1/1 ethanol/water (volume ratio)): 69 to 103 mg/mL
solubility ([4]; 1/1 isopropanol/water (v/v), aqueous with cosolvent or surfactant or cyclodextrin, thermodynamic from solid, 1/1 isopropanol/water (volume ratio)): 71 to 107 mg/mL
solubility ([4]; 1/1 methanol/water (v/v), aqueous with cosolvent or surfactant or cyclodextrin, thermodynamic from solid, 1/1 methanol/water (volume ratio)): > 200 mg/mL
solubility ([4]; 10/1 ethyl acetate/ethanol (v/v), organic solvent or mixture, thermodynamic from solid, 10/1 ethyl acetate/ethanol (volume ratio)): 32 to 39 mg/mL
solubility ([4]; 10/1 isopropanol/water (v/v), organic solvent or mixture, thermodynamic from solid, 10/1 isopropanol/water (volume ratio)): 36 to 41 mg/mL
solubility ([4]; acetone, organic solvent or mixture, thermodynamic from solid, acetone): 57 to 76 mg/mL (≈ 192 to 256 mM)
solubility ([4]; acetonitrile, organic solvent or mixture, thermodynamic from solid, acetonitrile): 118 to 230 mg/mL (≈ 397 to 773 mM)
solubility ([4]; aniline, organic solvent or mixture, thermodynamic from solid, aniline): > 200 mg/mL
solubility ([4]; anisole, organic solvent or mixture, thermodynamic from solid, anisole): ~3 mg/mL (≈ 10.1 mM)
solubility ([4]; cyclohexane, organic solvent or mixture, thermodynamic from solid, cyclohexane): ~1 mg/mL (≈ 3.36 mM)
solubility ([4]; dichloromethane, organic solvent or mixture, thermodynamic from solid, dichloromethane): 55 to 73 mg/mL (≈ 185 to 245 mM)
solubility ([4]; diisopropyl ether, organic solvent or mixture, thermodynamic from solid, diisopropyl ether): < 1 mg/mL
solubility ([4]; dimethyl sulfoxide, organic solvent or mixture, thermodynamic from solid, dimethyl sulfoxide): > 200 mg/mL
solubility ([4]; dimethylformamide, organic solvent or mixture, thermodynamic from solid, dimethylformamide): > 200 mg/mL
solubility ([4]; ethanol, organic solvent or mixture, thermodynamic from solid, ethanol): > 200 mg/mL
solubility ([4]; ethyl acetate saturated with water, organic solvent or mixture, thermodynamic from solid, ethyl acetate saturated with water): 6 to 8 mg/mL (≈ 20.2 to 26.9 mM)
solubility ([4]; ethyl acetate, organic solvent or mixture, thermodynamic from solid, ethyl acetate): 13 to 15 mg/mL (≈ 43.7 to 50.4 mM)
solubility ([4]; heptane, organic solvent or mixture, thermodynamic from solid, heptane): < 1 mg/mL
solubility ([4]; isopropanol, organic solvent or mixture, thermodynamic from solid, isopropanol): 45 to 60 mg/mL (≈ 151 to 202 mM)
solubility ([4]; isopropyl acetate, organic solvent or mixture, thermodynamic from solid, isopropyl acetate): 5 to 6 mg/mL (≈ 16.8 to 20.2 mM)
solubility ([4]; methanol, organic solvent or mixture, thermodynamic from solid, methanol): > 200 mg/mL
solubility ([4]; methyl ethyl ketone, organic solvent or mixture, thermodynamic from solid, methyl ethyl ketone): 32 to 38 mg/mL (≈ 108 to 128 mM)
solubility ([4]; tert-butyl methyl ether saturated with water, organic solvent or mixture, thermodynamic from solid, tert-butyl methyl ether saturated with water): < 1 mg/mL
solubility ([4]; tert-butyl methyl ether, organic solvent or mixture, thermodynamic from solid, tert-butyl methyl ether): < 1 mg/mL
solubility ([4]; tetrahydrofuran, organic solvent or mixture, thermodynamic from solid, tetrahydrofuran): 31 to 36 mg/mL (≈ 104 to 121 mM)
solubility ([4]; toluene, organic solvent or mixture, thermodynamic from solid, toluene): < 1 mg/mL
solubility ([4]; triethylamine, organic solvent or mixture, thermodynamic from solid, triethylamine): < 1 mg/mL
solubility ([4]; water, water, thermodynamic from solid, water): 26 to 30 mg/mL (≈ 87.4 to 101 mM)
changes in impurity profile or other quality attributes (appearance, assay, water content, microbial examination, XRPD) ([5]; 6 months at 40° C./75% relative humidity): no significant changes
changes in impurity profile or other quality attributes (appearance, assay, water content, microbial examination, XRPD) ([5]; 12 months at 25° C./60% relative humidity): no significant changes
